Measured values as given in ChEMBL document CHEMBL3734721 (J Med Chem, 2015).
In brackets after ≈: the same amount, converted by molar mass.

Tests used:
[1] = molecular target: Muscarinic acetylcholine receptor M3 (Homo sapiens, UniProt P20309); test: Antagonist activity at human wild-type M3 receptor expressed in CHO-K1 cells assessed as acetylcholine-induced calcium by FDSS assay; format: functional, cell-based
[2] = molecular target: 5-hydroxytryptamine receptor 1A (Homo sapiens, UniProt P08908); test: Antagonist activity at human 5-HT1A receptor expressed in CHO-K1 cells assessed as seretonin-induced cAMP level by HTRF assay; format: functional, cell-based
Sequence of 5-hydroxytryptamine receptor 1A (P08908 whole entry): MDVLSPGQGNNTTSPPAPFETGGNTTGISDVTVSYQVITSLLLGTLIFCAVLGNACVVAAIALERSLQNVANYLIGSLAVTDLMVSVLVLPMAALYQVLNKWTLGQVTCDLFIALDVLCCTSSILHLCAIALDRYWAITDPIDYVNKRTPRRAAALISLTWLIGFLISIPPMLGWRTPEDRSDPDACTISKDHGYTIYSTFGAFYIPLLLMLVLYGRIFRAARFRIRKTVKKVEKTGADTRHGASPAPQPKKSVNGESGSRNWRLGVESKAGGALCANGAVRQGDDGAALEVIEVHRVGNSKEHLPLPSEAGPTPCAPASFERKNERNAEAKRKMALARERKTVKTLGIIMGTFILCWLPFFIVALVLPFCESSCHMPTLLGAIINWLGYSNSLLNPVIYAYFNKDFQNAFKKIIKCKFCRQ

[3] = Chemical stability of compound in DMSO assessed as compound remaining at 10 mg/ml after 1 day at room temperature; format: physicochemical; conditions: read-out: Stability
[4] = molecular target: T1, Alpha-2A adrenergic receptor (Homo sapiens, UniProt P08913); test: Agonist activity at human wild-type alpha 2A receptor expressed in CHO-K1 cells assessed as cAMP level by HTRF assay; format: functional, cell-based
T1 sequence (P08913 whole entry): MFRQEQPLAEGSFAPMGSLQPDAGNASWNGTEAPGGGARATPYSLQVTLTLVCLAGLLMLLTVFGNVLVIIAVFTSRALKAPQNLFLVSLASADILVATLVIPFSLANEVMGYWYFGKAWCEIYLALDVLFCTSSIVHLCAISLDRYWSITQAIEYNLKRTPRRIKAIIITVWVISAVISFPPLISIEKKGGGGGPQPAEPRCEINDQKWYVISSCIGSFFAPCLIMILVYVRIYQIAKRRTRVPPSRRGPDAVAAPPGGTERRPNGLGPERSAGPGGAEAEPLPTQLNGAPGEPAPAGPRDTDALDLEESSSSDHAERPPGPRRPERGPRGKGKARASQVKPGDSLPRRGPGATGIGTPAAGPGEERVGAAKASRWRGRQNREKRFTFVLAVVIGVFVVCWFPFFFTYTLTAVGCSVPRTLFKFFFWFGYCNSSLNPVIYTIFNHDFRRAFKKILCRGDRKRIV

[5] = molecular target: T2, Muscarinic acetylcholine receptor M1 (Homo sapiens, UniProt P11229); test: Agonist activity at human wild-type M1 receptor expressed in CHO-K1 cells assessed as calcium level by FDSS assay; format: functional, cell-based
T2 sequence (P11229 whole entry): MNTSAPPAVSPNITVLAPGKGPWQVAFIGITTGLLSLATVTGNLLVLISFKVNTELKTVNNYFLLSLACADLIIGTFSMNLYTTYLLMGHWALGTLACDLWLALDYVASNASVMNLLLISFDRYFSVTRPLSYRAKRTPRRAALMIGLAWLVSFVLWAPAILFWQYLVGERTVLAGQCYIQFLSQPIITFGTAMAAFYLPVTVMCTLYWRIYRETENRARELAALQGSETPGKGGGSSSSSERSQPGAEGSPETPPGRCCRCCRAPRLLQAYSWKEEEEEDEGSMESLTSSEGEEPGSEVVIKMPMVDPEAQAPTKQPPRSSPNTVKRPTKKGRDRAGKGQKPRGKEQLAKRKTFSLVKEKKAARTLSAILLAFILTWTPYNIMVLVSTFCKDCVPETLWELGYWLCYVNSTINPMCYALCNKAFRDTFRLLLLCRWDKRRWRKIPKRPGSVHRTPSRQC

[6] = molecular target: 5-hydroxytryptamine receptor 1B (Homo sapiens, UniProt P28222); test: Antagonist activity at human 5-HT1B receptor expressed in CHO-K1 cells assessed as seretonin-induced cAMP level by HTRF assay; format: functional, cell-based
Sequence of 5-hydroxytryptamine receptor 1B (P28222 whole entry): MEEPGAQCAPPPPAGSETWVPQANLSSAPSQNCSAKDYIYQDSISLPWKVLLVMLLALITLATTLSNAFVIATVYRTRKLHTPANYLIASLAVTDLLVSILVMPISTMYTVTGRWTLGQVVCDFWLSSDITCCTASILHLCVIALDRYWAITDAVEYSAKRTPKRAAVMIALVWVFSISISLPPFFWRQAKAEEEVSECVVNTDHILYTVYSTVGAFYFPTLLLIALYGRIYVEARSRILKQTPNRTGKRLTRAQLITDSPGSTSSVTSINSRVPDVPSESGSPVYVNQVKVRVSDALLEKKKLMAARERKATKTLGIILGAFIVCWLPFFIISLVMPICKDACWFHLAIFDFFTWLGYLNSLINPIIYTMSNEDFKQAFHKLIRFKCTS

[7] = molecular target: T3, 5-hydroxytryptamine receptor 2C (Homo sapiens, UniProt P28335); test: Antagonist activity at human 5-HT2C receptor expressed in CHO-K1 cells assessed as seretonin-induced calcium level by FDSS assay; format: functional, cell-based
T3 sequence (P28335 whole entry): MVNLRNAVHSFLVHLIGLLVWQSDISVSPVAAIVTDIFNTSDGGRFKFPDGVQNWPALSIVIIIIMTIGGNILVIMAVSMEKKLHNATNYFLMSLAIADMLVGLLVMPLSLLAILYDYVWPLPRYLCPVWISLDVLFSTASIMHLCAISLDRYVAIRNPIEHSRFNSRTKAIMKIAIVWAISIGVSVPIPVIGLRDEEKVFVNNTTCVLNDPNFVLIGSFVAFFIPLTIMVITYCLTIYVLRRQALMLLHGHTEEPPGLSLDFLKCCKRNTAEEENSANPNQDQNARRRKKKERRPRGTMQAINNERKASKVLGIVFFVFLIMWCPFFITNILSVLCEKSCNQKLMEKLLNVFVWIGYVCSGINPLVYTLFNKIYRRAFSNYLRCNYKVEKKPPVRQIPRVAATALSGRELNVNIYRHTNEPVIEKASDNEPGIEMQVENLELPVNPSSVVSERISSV

[8] = Cmax in Swiss mouse brain at 5 mg/kg, sc; format: ADME, organism-based; set-up: dose 5 mg/kg, route subcutaneous
[9] = Kinetic solubility of compound in phosphate buffer at pH 7.4 for 4 hrs by UPLC/UV analysis; format: physicochemical; conditions: read-out: Kinetic_solubility
[10] = Fraction unbound in mouse plasma at 5 uM after 4.5 hrs by LC-MS/MS analysis; format: ADME, cell-free
Adenosine receptor A3 = molecular target: T4, Adenosine receptor A3 (Homo sapiens, UniProt P0DMS8); test: Antagonist activity at human wild-type A3 receptor expressed in CHO-K1 cells assessed as IB MECA-induced cAMP by HTRF assay; format: functional, cell-based
T4 sequence (P0DMS8 whole entry): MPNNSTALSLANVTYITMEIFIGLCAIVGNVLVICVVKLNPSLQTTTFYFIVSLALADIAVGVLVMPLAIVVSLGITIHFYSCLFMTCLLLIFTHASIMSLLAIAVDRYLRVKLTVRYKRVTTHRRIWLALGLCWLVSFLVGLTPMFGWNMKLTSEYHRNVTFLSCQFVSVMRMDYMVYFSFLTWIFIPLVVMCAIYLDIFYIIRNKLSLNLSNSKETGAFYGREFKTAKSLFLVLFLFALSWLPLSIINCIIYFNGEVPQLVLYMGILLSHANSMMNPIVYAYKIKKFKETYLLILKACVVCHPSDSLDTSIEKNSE

Cytochrome P450 1A2 = molecular target: T5, Cytochrome P450 1A2 (Homo sapiens, UniProt P05177); test: Inhibition of human CYP1A2 by LC-MS analysis; format: ADME
T5 sequence (P05177 whole entry): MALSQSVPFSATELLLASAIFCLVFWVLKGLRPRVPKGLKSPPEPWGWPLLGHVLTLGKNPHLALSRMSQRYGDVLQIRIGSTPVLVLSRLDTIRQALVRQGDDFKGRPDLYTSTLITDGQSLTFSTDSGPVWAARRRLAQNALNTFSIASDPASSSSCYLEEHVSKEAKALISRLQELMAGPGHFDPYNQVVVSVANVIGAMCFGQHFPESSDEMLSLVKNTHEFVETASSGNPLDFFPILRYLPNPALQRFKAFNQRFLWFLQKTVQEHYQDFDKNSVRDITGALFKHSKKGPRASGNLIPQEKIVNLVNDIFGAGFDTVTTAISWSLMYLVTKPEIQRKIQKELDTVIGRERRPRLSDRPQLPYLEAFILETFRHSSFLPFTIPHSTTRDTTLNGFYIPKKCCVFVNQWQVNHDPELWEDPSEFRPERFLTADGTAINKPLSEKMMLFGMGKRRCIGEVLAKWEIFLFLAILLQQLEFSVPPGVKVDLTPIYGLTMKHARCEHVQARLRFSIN

[11] = Intrinsic clearance in rat liver microsomes at 1 uM by HPLC/MS/MS analysis; format: ADME; conditions: read-out: CLH

Sequence of Muscarinic acetylcholine receptor M3 (P20309 whole entry): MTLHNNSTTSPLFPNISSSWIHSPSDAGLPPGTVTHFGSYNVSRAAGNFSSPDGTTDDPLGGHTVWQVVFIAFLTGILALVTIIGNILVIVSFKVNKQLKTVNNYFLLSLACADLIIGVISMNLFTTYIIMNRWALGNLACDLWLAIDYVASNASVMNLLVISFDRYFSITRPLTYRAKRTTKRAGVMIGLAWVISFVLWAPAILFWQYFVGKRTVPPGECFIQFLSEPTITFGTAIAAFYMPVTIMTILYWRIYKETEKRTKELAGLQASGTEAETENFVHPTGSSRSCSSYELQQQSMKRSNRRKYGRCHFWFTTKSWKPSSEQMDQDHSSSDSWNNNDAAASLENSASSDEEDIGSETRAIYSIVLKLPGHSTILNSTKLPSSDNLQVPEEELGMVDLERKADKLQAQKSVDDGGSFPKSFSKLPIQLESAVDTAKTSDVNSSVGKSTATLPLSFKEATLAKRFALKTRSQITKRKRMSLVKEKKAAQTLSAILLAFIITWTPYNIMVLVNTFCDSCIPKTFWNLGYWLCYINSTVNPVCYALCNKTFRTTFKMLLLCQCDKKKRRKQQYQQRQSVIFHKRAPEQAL

Compound `CB1C=Cc2c(cccc2OCC(O)CN(C)C)N1` (stereo unspecified) has an IC50 [1] greater than 5.01 µM, an IC50 [2] of 2 µM and a remaining at 24 h, 10 mg/ml [3] of 97%. The EC50 [4] was greater than 5.01 µM, the EC50 [5] was greater than 5.01 µM and the IC50 [6] was greater than 5.01 µM. It also gave an IC50 [7] greater than 5.01 µM, a Cmax [8] of 62 µM and a solubility kinetic at 4 h [9] of 647 µM (≈ 168 µg/mL). It also gave a fraction unbound at 4.5 h, 5 µM [10] of 0.21, an IC50 (Adenosine receptor A3) greater than 5.01 µM and an IC50 (Cytochrome P450 1A2) greater than 10 µM. For the same compound, the microsomal CLint at 1 µM [11] was greater than 346 µL/min/mg.
Work on `CB1C=Cc2cccc(OCC(O)CNC(C)C)c2N1` (stereo unspecified) yielded an IC50 [1] greater than 5.01 µM, an IC50 [2] greater than 5.01 µM and a remaining at 24 h, 10 mg/ml [3] of 96%. For the same compound, the EC50 [4] was greater than 5.01 µM, the EC50 [5] was greater than 5.01 µM and the IC50 [6] was greater than 5.01 µM. It also gave an IC50 [7] greater than 5.01 µM, a Cmax [8] of 7 µM and a solubility kinetic at 4 h [9] of 699 µM (≈ 192 µg/mL). For the same compound, the fraction unbound at 4.5 h, 5 µM [10] was 0.074, the IC50 (Adenosine receptor A3) was greater than 5.01 µM and the IC50 (Cytochrome P450 1A2) was 3.16 µM. It also gave a microsomal CLint at 1 µM [11] of 289 µL/min/mg.
